{"source": "BindingDB's records for doi:10.1016/j.bmcl.2006.03.080", "about": "(University of Siena, 2006)", "key": {"[1]": {"test": "Antiviral activity against HIV1 K103N mutant in MT4 cells by MTT assay"}, "[2]": {"test": "Antiviral activity against HIV1 IRLL98 in MT4 cells by MTT assay"}, "[3]": {"test": "Antiviral activity against wild type HIV1 NL4-3 in MT4 cells by MTT assay"}, "[4]": {"test": "Antiviral activity against HIV1 Y188L mutant in MT4 cells by MTT assay"}, "[5]": {"test": "Antiviral activity against HIV1 Y181C mutant in MT4 cells by MTT assay"}}}
{"smiles": "COc1ccc(Sc2nc(Cc3c(F)cccc3F)c(C)c(=O)[nH]2)cc1", "values": [{"measurement": "EC50", "setting": "[1]", "value": "> 57.5", "unit": "µM"}, {"measurement": "EC50", "setting": "[2]", "value": "> 57.5", "unit": "µM"}, {"measurement": "EC50", "setting": "[3]", "value": 0.67, "unit": "µM"}, {"measurement": "EC50", "setting": "[4]", "value": "> 57.5", "unit": "µM"}]}
{"smiles": "COc1ccc(Sc2nc(Cc3c(Cl)cccc3Cl)c(C)c(=O)[nH]2)cn1", "values": [{"measurement": "EC50", "setting": "[1]", "value": "> 61.7", "unit": "µM"}, {"measurement": "EC50", "setting": "[5]", "value": 6.52, "unit": "µM"}, {"measurement": "EC50", "setting": "[2]", "value": 8.68, "unit": "µM"}, {"measurement": "EC50", "setting": "[3]", "value": 2.72, "unit": "µM"}, {"measurement": "EC50", "setting": "[4]", "value": "> 61.3", "unit": "µM"}]}
{"smiles": "Cc1c(Cc2c(F)cccc2F)nc(Sc2ccc(Cl)cc2)[nH]c1=O", "values": [{"measurement": "EC50", "setting": "[1]", "value": 8.01, "unit": "µM"}, {"measurement": "EC50", "setting": "[2]", "value": "> 66.1", "unit": "µM"}, {"measurement": "EC50", "setting": "[3]", "value": 0.1, "unit": "µM"}, {"measurement": "EC50", "setting": "[4]", "value": "> 66.1", "unit": "µM"}]}
{"smiles": "Cc1c(Cc2c(F)cccc2F)nc(Sc2ccccc2)[nH]c1=O", "values": [{"measurement": "EC50", "setting": "[1]", "value": 42.5, "unit": "µM"}, {"measurement": "EC50", "setting": "[2]", "value": 16.7, "unit": "µM"}, {"measurement": "EC50", "setting": "[3]", "value": 0.09, "unit": "µM"}, {"measurement": "EC50", "setting": "[4]", "value": "> 72.7", "unit": "µM"}]}
{"smiles": "Cc1c(Cc2c(Cl)cccc2Cl)nc(Sc2ccccc2)[nH]c1=O", "values": [{"measurement": "EC50", "setting": "[1]", "value": "> 66.3", "unit": "µM"}, {"measurement": "EC50", "setting": "[5]", "value": 12.1, "unit": "µM"}, {"measurement": "EC50", "setting": "[2]", "value": 4.91, "unit": "µM"}, {"measurement": "EC50", "setting": "[3]", "value": 1.8, "unit": "µM"}, {"measurement": "EC50", "setting": "[4]", "value": "> 66.3", "unit": "µM"}]}
{"smiles": "Cc1c(Cc2c(F)cccc2F)nc(Sc2ccc(F)cc2F)[nH]c1=O", "values": [{"measurement": "EC50", "setting": "[1]", "value": "> 65.8", "unit": "µM"}, {"measurement": "EC50", "setting": "[2]", "value": 25.8, "unit": "µM"}, {"measurement": "EC50", "setting": "[3]", "value": 0.31, "unit": "µM"}, {"measurement": "EC50", "setting": "[4]", "value": "> 65.8", "unit": "µM"}]}
{"smiles": "COc1ccc(Sc2nc(Cc3c(Cl)cccc3Cl)c(C)c(=O)[nH]2)cc1", "values": [{"measurement": "EC50", "setting": "[1]", "value": "> 61.4", "unit": "µM"}, {"measurement": "EC50", "setting": "[5]", "value": "> 61.4", "unit": "µM"}, {"measurement": "EC50", "setting": "[2]", "value": "> 61.4", "unit": "µM"}, {"measurement": "EC50", "setting": "[3]", "value": 26.5, "unit": "µM"}, {"measurement": "EC50", "setting": "[4]", "value": "> 61.4", "unit": "µM"}]}
{"smiles": "Cc1c(Cc2c(Cl)cccc2Cl)nc(Sc2ccc(F)cc2F)[nH]c1=O", "values": [{"measurement": "EC50", "setting": "[1]", "value": "> 60.5", "unit": "µM"}, {"measurement": "EC50", "setting": "[2]", "value": 44.7, "unit": "µM"}, {"measurement": "EC50", "setting": "[3]", "value": 3.36, "unit": "µM"}, {"measurement": "EC50", "setting": "[4]", "value": "> 60.5", "unit": "µM"}]}
{"smiles": "Cc1c(Cc2c(Cl)cccc2Cl)nc(Sc2ccc(C#N)cc2)[nH]c1=O", "values": [{"measurement": "EC50", "setting": "[1]", "value": "> 27.6", "unit": "µM"}, {"measurement": "EC50", "setting": "[5]", "value": 5.1, "unit": "µM"}, {"measurement": "EC50", "setting": "[2]", "value": "> 27.6", "unit": "µM"}, {"measurement": "EC50", "setting": "[3]", "value": 2.49, "unit": "µM"}, {"measurement": "EC50", "setting": "[4]", "value": "> 27.6", "unit": "µM"}]}
{"smiles": "Cc1cn([C@H]2C[C@H](N=[N+]=[N-])[C@@H](CO)O2)c(=O)[nH]c1=O", "note": "[1-((2R,4S,5S)-4-Azido-5-hydroxymethyl-tetrahydro-furan-2-yl)-5-methyl-1H-pyrimidine-2,4-dione]", "values": [{"measurement": "EC50", "setting": "[1]", "value": 0.003, "unit": "µM"}, {"measurement": "EC50", "setting": "[2]", "value": 0.008, "unit": "µM"}, {"measurement": "EC50", "setting": "[4]", "value": 0.003, "unit": "µM"}]}
